# Literature values as cited in patent publication US20050158747A1, “CFTR modifier genes and expressed polypeptides useful in treating cystic fibrosis and methods and products for detecting and/or identifying same” (priority 2003, published 2005).
# Assays:
# [1] = tested on: purinergic receptors in the airway epithelium; conditions: in vitro studies
# sodium (Na^+) channels = conditions: aerosolized; initial results
compound,measurement,setting,value
Nc1ncnc2c1ncn2[C@@H]1O[C@H](COP(=O)(O)OP(=O)(O)OP(=O)(O)O)[C@@H](O)[C@H]1O [ATP],chloride (Cl^−) secretion,[1],can stimulate chloride (Cl^−) secretion
N=C(N)NC(=O)c1nc(Cl)c(N)nc1N [amiloride],"rate of disease progression, as measured by lung function tests",sodium (Na^+) channels,slight change in the rate of disease progression
same,safety in trials,sodium (Na^+) channels,safe
O=c1ccn([C@@H]2O[C@H](COP(=O)(O)OP(=O)(O)OP(=O)(O)O)[C@@H](O)[C@H]2O)c(=O)[nH]1 [UTP],chloride (Cl^−) secretion,[1],can stimulate chloride (Cl^−) secretion
